Measured values reported in US20240307373A1, “METHODS OF USE AND COMPOSITIONS OF BISBENZYLISOQUINOLINES FOR THE TREATMENT OF MALIGNANCIES” (priority 2023, published 2024).
Values joined by “and” are separate entries in the source; they are usually repeats but may differ in a detail not shown here. Equal values may be shown once.

Experiments:
β-catenin = β-catenin level in K562 cell extracts by western blot; assay type: cell-based, human
Procedure: Levels of β-catenin and β-actin proteins in untreated and tetrandrine-treated K562 cell lines by Western blot.
Antibodies for Western Blot analysis against β-catenin and β-actin were purchased from Santa Cruz Biotechnology (Santa Cruz, CA) Protein lysates were prepared by lysing cells in RIPA buffer and immunoprecipitation.
Briefly, the method to quantitate β-catenin protein by western blot was as follows: Extracts of K562 cells (untreated and treated with various concentrations of tetrandrine) were concentrated to 0.4 ml using Centricon-3 column to yield a protein concentration of approximately 2 mg/ml. Samples were mixed with 5X Laemmli buffer and loaded on 8-16% Tris-Glycine gradient gel, then polyacrylamide gel electrophoresis (PAGE) was run at 85 volts for 100 minutes at 6° C. and proteins were transferred on PVDF membrane at 70 Volts for 85 minutes at 8° C. Membrane was blocked with 5% milk in Tris-buffered Saline containing 0.1% TW-20 (TBST). Membrane was incubated with primary antibody for 18 hours at 4° C. followed by 3 washes, 5 minutes each, with TBST and incubated with secondary antibody in TBST for 2 hours at 25° C. […] Protein bands in WB images were quantitated using Molecular Imaging software pack MIS-4.0 software and tabulated in Excel spreadsheet.

[1] = tested on: human CML bone marrow-derived cells; test: Colony forming cell (CFC) assay on CML patient bone marrow cells; conditions: colony number, methylcellulose-based medium, 14-16 days
Procedure: Clonogenic progenitors were set up using buman CML bone marrow-derived cells in the methylcellulose-based media formulation described above. Test articles were added to the medium to give final concentrations as described above. Standard cultures containing IMDM+10% FBS as well as solvent control cultures containing DMSO were also initiated. Following addition of the test compounds and cells, the tubes were vortexed to ensure equal distribution of compound and cells throughout the matrix. The cultures were set up in triplicate at 0.1×10^6 cells per culture (lot #BBM1000-E1110025705111110G4) for each control and each compound concentration. The cultures were placed in a humidified incubator (37° C., 5% CO2). Following 14-16 days in culture, the colonies were assessed and scored by trained personnel.
Human bone marrow light-density cells derived from CML patient bone marrow (Conversant Bio, Alabama), were stored in the gaseous phase of liquid nitrogen until required. On the day of the experiment, the cells were thawed rapidly, the contents of the vial were diluted in 10 mL of Iscove's Modified Dulbecco's Medium containing 10% fetal bovine serum (IMDM+10% FBS) and washed by centrifugation (approximately 1200 r.p.m. for 10 minutes, room temperature). The supernatant was discarded, and the cell pellets were resuspended in a known volume of IMDM+10% FBS. A cell count (3% glacial acetic acid) and viability assessment (trypan blue exclusion test) […] Tetrandrine (10 μM) for 14 days. After treatment, primary and secondary colonies were grown and analyzed by qPCR to determine BCR-ABL or ABL only cells.
Human erythroid (CFU-E and BFU-E) and myeloid (CFU-GM) colony enumeration were performed by trained personnel. In addition, the distribution of colony types as well as general colony and cellular morphology were analyzed. […] For statistical analysis, colony numbers in compound-treated cultures were compared to the solvent control cultures.

[2] = tested on: human CML bone marrow-derived cells; test: Replating assay (secondary clonal growth of plucked CFU-GM colonies); assay type: cell-based
Procedure: Following enumeration of the erythroid and myeloid progenitors, individual CFU-GM colonies were plucked from the matrix and diluted in 20 μL of IMDM+10% FBS. The colony was dispersed in this medium by gentle pipetting. This cellular mixture was then added to a well of a 96 well plate containing 180 μL of the ColonyGel medium described above. […] Both the number of wells which supported clonal growth as well as colony number per well were recorded.

bcr-abl transcripts = test: qPCR assay for bcr-abl and abl transcripts in primary and secondary colonies; assay type: cell-based, human; conditions: 10 μM, number of colonies
Procedure: After 14-16 days in culture, individual colonies were plucked from the solvent control and tetrandrine at 10 μM test condition into 75 μL of buffer RLT (Qiagen). Secondary replated colonies were collected and washed with 2 mL of 1× PBS, frozen at −80° C. and then lysed with 75 μL of buffer RLT (Qiagen). RNA was isolated using the Rneasy Micro kit according to the manufacture's instructions. Because the cell numbers in each colony were low, 20 ng of carrier RNA was included in each reaction to promote a better RNA yield. After elution, the entire isolation was subjected to a cDNA conversion using the high-capacity cDNA conversion kit (Life Technologies).
Using cDNA derived from both primary and secondary replated colonies, qPCR assay was used to determine whether colonies were positive for ber-abl transcripts. Primers and probes were designed based on the publication from Luthra, et.al. and are designed to anneal to ber-abl (target) and abl (endogenous control) cDNA. Each target was assayed in duplicated in a 20 μL reaction volume. Samples were denatured at 95° C. for 10 min and then amplified for 40 rounds of 95° C. for 15 s and 60° C. for 60 s.
To determine whether a colony was normal (bcr-abl negative and abl positive) or diseased (bcr-abl and abl positive), a TaqMan®-based qPCR test was used. In order to score the colonies positive or negative, the following scoring strategy was performed. All colonies were assayed in duplicate for each target. If a singleton reaction yielded a Ct then the reaction scored a 1. If no Ct was recorded, a score of 0 was given. From here, we used a logic test to score the colonies into four different categories: bcr-abl and abl, abl only, bcr-abl only or both negative. In order to be placed in a category, a colony must score a 1 in both reactions. However, if a colony only scored a 1 for one out of the two reactions, this colony was removed from the analysis. If a colony scored a 1 for each reaction (both bcr-abl and abl) the colony was placed into the ber-abl and abl category, signifying it as a diseased colony. Alternatively, if a colony scored a 1 in only both of the bcr-abl reactions or a 1 in only both the abl reactions, the colony was placed in the bcr-abl only or abl only category, respectively. If the colony scored a 0 for both targets (bcr-abl and abl) then the colony was placed in the both negative category.

[3] = tested on: leukemic cells and leukemic stem cells; test: BCR-ABL induced CML mouse model (bone marrow transplantation); assay type: in vivo, C57BL/6 mice
Text: The method is as follows: 20 C57BL/6 mice were used as donors for bone marrow transduction. They were primed by intravenous injection with 5-fluorouracil four days before collecting cells. Bone marrow cells were harvested from femurs and tibias. Bone marrow cells were infected with a retrovirus containing MSCV-BCR-ABL-IRES-GFP twice 60 recipient mice were lethally irradiated by two doses of 550cGy before bone marrow transplantation by intravenous injection with 500,000 cells/mouse.
In an in vivo model, the effectiveness of Tetrandrine was tested on CML stem cells. The objective of the study was to determine the survival of leukemic cells and leukemic stem cells in response to the treatment with Tetrandrine. After priming donor C57BL/6 (B6) mice with intravenous injections of 5-fluorouracil for four days, bone marrow cells were harvested from femurs and tibia, then transfected twice with retrovirus containing MSCV-BCR-ABL-IRES-GFP. Recipient mice were lethally irradiated by two doses of 550 cGy before bone marrow transplantation by intravenous injection with 5×10^5 cells/mouse. Blood from recipient mice was tested for disease induction one week after transduction by FACS analysis for GFP (FIG. 7A). […] Treatments started on day 8 after bone marrow transplantation (FIG. 7B).

CAMKII gamma = biological target: T1, CAMKII gamma (Homo sapiens, UniProt Q13555); test: CAMKII gamma kinase activity (ADP Glo); assay type: biochemical
T1 construct: purchased Promega V3531
Procedure: An enzymatic study was conducted to evaluate the inhibition of CAMKII gamma by ES-3000 (Tetrandrine). CAMKII gamma kinase activity was measured using […] purchased from Promega following the Promega protocol. CAMKII enzyme system purchased from Promega (V3531). ADP Glo was used for detection. Assay optimized for linearity of protein and time. Conditions for inhibitor screening 25 ng CAMKII, 20 min. incubations, inhibitor or DMSO (5%) at RT in 20 uL total volume. Inhibitors, ATP (10 or 50 uM), substrates and buffer added to tubes and reactions started with enzyme. […] Reactions terminated at 20 min. by adding ADP Glo reaction following manufactures instructions. All reactions were done in duplicate. Calculations of percent (%) inhibition determined by dividing the mean activity at each condition by the mean of the DMSO control times 100.

[4] = tested on: human breast, colon carcinoma, and hepatoma cell lines; conditions: read-out: IC50 range; cited from earlier work
HCT116 cells = conditions: cited from earlier work
P-glycoprotein (P-gp) = P-glycoprotein (P-gp) (Homo sapiens, UniProt P08183); conditions: cited from earlier work
calmodulin (CaM) = calmodulin (CaM) (Homo sapiens, UniProt P0DP23); conditions: Ma 2013; cited from earlier work
hERG = hERG (Homo sapiens, UniProt Q12809); test: hERG inhibition, IonWorks HT electrophysiology in CHO cells stably transfected with hERG
[5] = Tetrandrine 150 mg/kg orally 1×/day versus Imatinib 100 mg/kg 2×/day, treatment from day 8 after bone marrow transplantation

T1 sequence (Q13555 whole entry): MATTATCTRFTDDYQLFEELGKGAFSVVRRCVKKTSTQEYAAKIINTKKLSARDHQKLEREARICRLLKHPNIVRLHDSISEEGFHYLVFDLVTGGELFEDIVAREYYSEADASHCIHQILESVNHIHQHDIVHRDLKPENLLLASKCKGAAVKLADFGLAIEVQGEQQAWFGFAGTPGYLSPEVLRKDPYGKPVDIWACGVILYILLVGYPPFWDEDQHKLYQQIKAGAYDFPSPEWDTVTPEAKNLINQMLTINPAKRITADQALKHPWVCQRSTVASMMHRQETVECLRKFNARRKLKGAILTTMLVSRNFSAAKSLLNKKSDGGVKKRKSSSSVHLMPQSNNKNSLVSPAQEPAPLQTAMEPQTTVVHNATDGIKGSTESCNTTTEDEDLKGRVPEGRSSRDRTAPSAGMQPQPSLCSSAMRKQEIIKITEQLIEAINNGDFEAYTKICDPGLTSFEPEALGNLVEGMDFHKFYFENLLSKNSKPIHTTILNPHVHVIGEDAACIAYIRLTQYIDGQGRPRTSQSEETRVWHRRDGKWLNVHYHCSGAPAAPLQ
Chain of P-glycoprotein (P-gp) (P08183 whole entry): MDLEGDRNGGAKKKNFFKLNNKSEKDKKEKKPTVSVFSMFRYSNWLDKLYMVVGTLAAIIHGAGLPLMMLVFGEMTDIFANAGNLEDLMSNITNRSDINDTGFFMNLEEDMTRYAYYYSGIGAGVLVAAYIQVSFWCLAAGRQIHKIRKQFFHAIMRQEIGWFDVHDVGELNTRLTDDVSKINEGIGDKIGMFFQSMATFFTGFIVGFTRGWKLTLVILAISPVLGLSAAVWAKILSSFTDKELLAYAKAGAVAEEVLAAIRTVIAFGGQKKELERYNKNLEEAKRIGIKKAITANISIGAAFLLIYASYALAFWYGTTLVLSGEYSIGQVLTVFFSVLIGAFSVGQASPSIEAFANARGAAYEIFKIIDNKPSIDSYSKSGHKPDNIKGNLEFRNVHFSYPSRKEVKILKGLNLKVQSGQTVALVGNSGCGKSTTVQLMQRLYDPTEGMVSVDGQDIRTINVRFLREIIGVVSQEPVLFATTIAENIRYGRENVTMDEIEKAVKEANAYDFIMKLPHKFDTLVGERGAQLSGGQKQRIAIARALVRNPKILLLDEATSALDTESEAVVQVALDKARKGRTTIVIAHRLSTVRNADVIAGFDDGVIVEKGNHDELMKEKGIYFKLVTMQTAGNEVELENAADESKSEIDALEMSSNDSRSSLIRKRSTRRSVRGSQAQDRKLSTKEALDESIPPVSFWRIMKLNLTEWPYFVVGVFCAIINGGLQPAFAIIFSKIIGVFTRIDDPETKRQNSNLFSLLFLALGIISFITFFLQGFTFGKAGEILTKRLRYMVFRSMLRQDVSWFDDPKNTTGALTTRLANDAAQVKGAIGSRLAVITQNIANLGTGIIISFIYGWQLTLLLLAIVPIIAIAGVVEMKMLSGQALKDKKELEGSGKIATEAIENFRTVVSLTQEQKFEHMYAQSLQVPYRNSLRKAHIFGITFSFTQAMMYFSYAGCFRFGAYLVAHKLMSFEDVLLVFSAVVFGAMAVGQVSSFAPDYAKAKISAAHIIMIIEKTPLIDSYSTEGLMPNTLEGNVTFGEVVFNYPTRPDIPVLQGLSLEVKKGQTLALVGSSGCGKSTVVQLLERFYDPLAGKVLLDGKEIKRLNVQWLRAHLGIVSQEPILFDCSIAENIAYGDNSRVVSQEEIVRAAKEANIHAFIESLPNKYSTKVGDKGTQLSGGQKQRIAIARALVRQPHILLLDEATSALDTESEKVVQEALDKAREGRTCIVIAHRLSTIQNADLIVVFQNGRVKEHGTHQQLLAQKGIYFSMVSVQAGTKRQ
Chain of hERG (Q12809 whole entry): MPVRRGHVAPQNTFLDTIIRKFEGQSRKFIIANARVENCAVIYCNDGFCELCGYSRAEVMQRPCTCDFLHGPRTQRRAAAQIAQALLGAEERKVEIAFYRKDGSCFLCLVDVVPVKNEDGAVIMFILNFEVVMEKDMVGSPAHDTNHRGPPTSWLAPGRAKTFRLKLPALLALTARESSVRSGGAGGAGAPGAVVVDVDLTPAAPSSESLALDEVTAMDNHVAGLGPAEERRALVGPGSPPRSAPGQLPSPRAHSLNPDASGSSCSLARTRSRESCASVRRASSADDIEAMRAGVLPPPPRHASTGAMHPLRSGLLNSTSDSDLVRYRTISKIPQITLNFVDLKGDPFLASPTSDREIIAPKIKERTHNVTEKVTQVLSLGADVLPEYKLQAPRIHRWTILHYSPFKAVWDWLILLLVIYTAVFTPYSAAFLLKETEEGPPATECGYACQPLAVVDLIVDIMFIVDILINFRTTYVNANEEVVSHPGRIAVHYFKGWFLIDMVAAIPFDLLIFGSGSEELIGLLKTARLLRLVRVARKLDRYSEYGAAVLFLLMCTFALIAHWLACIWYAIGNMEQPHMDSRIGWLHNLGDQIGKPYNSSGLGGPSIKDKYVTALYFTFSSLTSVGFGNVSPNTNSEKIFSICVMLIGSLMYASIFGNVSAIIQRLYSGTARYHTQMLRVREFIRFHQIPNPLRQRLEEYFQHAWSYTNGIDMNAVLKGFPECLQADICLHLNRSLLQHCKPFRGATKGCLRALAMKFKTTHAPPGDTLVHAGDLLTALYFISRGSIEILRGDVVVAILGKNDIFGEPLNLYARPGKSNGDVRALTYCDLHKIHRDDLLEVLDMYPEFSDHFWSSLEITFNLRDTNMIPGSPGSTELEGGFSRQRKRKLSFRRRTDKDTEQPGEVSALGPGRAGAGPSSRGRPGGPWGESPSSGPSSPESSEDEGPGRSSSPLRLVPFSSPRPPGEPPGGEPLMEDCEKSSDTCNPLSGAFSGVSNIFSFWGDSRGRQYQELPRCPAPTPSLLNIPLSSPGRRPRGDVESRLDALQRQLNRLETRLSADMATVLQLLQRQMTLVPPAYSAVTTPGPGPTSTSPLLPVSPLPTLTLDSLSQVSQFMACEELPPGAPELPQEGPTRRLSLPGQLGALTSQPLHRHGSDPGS

6,6′,7,12-tetramethoxy-2,2′-dimethyl-berbaman [ES-3000]
β-catenin band (β-catenin; K562 cells treated with 20 and 40 uM): absent
β-catenin level (β-catenin; K562 cells, 0 to 40 uM, 24 hours, western blot): lowers the β-catenin level in K562 cells in a dose dependent manner
BFU-E ([1]; 0.1 μM): 22 ± 4
CFU-E ([1]; 0.1 μM): 11 ± 1
CFU-GM ([1]; 0.1 μM): 55 ± 5
Total Erythroid ([1]; 0.1 μM): 33 ± 3
BFU-E ([1]; 1 μM): 22 ± 4
CFU-E ([1]; 1 μM): 10 ± 2
CFU-GM ([1]; 1 μM): 54 ± 2
Total Erythroid ([1]; 1 μM): 33 ± 3
BFU-E ([1]; 3 μM): 14 ± 3
CFU-E ([1]; 3 μM): 9 ± 2
CFU-GM ([1]; 3 μM): 52 ± 5
Total Erythroid ([1]; 3 μM): 23 ± 2
CFU-GM ([1]; 10 μM): 26 ± 2
Repeating Colony Count (secondary colonies per well) ([2]; colonies plucked from original cultures with ES-3000 @ 10 μM, 96 well plate, 14 days): 1
average CFC per well ([2]; original cultures with ES-3000 @ 10 μM): three
abl only (bcr-abl transcripts; Primary colonies): 1
bcr-abl only (bcr-abl transcripts; Primary colonies): 1
both negative (bcr-abl transcripts; Primary colonies): 4
abl only (bcr-abl transcripts; Secondary colonies): 1
bcr-abl only (bcr-abl transcripts; Secondary colonies): 0
both negative (bcr-abl transcripts; Secondary colonies): 9
spleen weight ([3]; Tetrandrine 150 mg/kg in 0.1N HCl, 1 time per day): reduces spleen weight
development of circulating leukemic cells [3, 5]: superior to Imatinib
development of leukemic stem cells [3, 5]: superior to Imatinib
mean (units) (CAMKII gamma; 30 uM inhibitor, 10 uM ATP): 3.09 units
units (duplicate reactions) (CAMKII gamma; 30 uM inhibitor, 10 uM ATP): 2.75 units and 3.43 units
mean (units) (CAMKII gamma; 30 uM inhibitor, 50 uM ATP): 10.55 units
units (duplicate reactions) (CAMKII gamma; 30 uM inhibitor, 50 uM ATP): 10.4 units and 10.7 units
mean (units) (CAMKII gamma; 100 uM inhibitor, 10 uM ATP): 2.87 units
units (duplicate reactions) (CAMKII gamma; 100 uM inhibitor, 10 uM ATP): 2.5 units and 3.24 units
mean (units) (CAMKII gamma; 100 uM inhibitor, 50 uM ATP): 7.955 units
units (duplicate reactions) (CAMKII gamma; 100 uM inhibitor, 50 uM ATP): 8.81 units and 7.1 units
mean (units) (CAMKII gamma; 250 uM inhibitor, 10 uM ATP): 0.41 units
units (duplicate reactions) (CAMKII gamma; 250 uM inhibitor, 10 uM ATP): 0.34 units and 0.48 units
IC50 [4]: 1.5 to 10.4 µM
anticancer activity in combination with 5-FU (HCT116 cells; HCT116 (He 2011)): synergistic anticancer activity with 5-FU
migration and invasion capabilities (HCT116 cells; HCT116 cells (He 2011)): reduced migration and invasion capabilities
P-gp substrate (P-glycoprotein (P-gp); Susa 2010): not a substrate of P-gp
reversal of P-glycoprotein-mediated drug resistance (P-glycoprotein (P-gp)): potent and specific activity
binding to calmodulin (CaM) (calmodulin (CaM)): bind competitively to calmodulin
plasma levels at which QT prolongation might be expected (hERG; subjects, interpretation of hERG IC50): above 249 ng/ml
safety for cardiac conduction-related toxicity (hERG IC50 versus Cmax) (hERG; utilizing Cmax from previous human clinical experience (Oldham 1998, Oldham 2000)): 13 fold
